Source: patent US20170258871A1, “COMBINED USE OF A TRKA INHIBITOR AND AN EPHA2 INHIBITOR FOR USING IN THE TREATMENT OF SOLID CANCERS, AND METHOD FOR THE PROGNOSIS OF SURVIVAL OF A PATIENT WHO HAS A SOLID CANCER” (UNIVERSITE DES SCIENCES ET TECHNOLOGIES DE LILLE, priority 2014, published 2017)

Tests used:
PC3 cells = experiment: In vitro invasion test (Boyden chamber), PC3; assay type: cell-based
Protocol: (0.5 nM) for a period of 20 hours. The untreated cells represent the control and determine a base invasion of 100%.
FIG. 3: A study of the involvement of EphA2 on the pro-invasive effects of proNGF. The invasion test is carried out on cells MDA-MB-231 (A), DU145 (B) and PC3 (C) transfected with a siRNA against EphA2 (siEphA2), TrkA (siTrkA) or a random siRNA (siCTRL). The transfected siCTRL cells are treated to provide a control and determine a base invasion of 100% (white column). […] The efficacy of the siRNA is measured by the western blot method through the use of specific antibodies against TrkA, EphA2, and actin (load control).
The Boyden Chambers (Transwell®; BD Biosciences; France) were recovered from a biological matrix (type 1 collagen from rats diluted to 400 μg·mL-1 in EMEM-0.1% FCS medium; Millipore). The cells were then seeded with 100,000 cells/well on PET membranes (polyethylene terephtalate; dia.: 10.5 mm; porosity: 8 μm) of Boyden Chambers and held in an EMEM-0.1% FCS medium. […] (0.5 nM) in the lower part. […] The number of cells was estimated after staining with Hoechst 33 258 (1 mM; 30 min; 20° C.) by counting the nuclei thereof using fluorescence microscopy on a total of 5 five randomly chosen fields (lens 10×; λ-excitation: 345 nm; λ-emission: 478 nm; Eclipse Ti) using the ImageJ software. […]

[1] = target: T1, TrkA/sortilin/EphA2 complex (Homo sapiens, UniProt Q99523); experiment: Immunoprecipitation of the TrkA/sortilin/EphA2 complex in cells MDA-MB-231 HA-TrkA; assay type: cell-based; settings: MDA-MB-231 HA-TrkA
T1 construct: expressed in transfected cells
T1 sequence (Q99523 78-831): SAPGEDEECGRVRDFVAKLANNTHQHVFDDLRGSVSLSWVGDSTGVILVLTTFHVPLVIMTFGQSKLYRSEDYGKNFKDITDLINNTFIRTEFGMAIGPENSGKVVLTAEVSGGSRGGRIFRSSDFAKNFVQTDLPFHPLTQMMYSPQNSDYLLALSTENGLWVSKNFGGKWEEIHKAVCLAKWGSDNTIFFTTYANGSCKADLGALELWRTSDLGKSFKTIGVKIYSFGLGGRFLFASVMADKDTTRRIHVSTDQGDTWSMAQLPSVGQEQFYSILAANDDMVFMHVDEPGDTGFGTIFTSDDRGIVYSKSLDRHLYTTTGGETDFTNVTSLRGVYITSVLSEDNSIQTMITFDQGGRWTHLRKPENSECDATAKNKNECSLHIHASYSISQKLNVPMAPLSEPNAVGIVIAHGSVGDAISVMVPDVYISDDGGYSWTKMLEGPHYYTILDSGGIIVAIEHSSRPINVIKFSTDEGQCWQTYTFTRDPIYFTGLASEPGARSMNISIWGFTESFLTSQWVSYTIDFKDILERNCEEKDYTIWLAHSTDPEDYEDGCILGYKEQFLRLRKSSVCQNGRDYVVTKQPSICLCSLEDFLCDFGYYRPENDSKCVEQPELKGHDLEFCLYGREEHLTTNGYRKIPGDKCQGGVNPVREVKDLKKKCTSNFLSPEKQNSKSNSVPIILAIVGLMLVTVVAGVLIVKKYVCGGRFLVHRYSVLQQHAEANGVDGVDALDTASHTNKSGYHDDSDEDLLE
Protocol: A. Cells MDA-MB-231 HA-TrkA were transfected with siTrkA and then treated with proNGF N.C.
D. Cells MDA-MB-231 HA-TrkA were transfected with siEphA2 and then treated with proNGF N.C. (30 min).
The sequences of siRNA used against EphA2 (siEphA2) at 100 pmol for each transfection, and against TrkA (pool of 3 siTrkA 1, 2 and 3) are given in table 1. The transfections of siRNA are produced by means of [sequence]in™ according to the manufacturers instructions (POL409-10, Polyplus transfection, Ozyme, Saint Quentin en Yvelines, France).
The beads (Protein G-agarose, Millipore) were washed twice (12,000 g; 1 min; 4° C.) and recovered in PBS IX (at 50% (v/v)). The protein samples (1 mg) were pre-clarified (1 h; 4° C.; on a wheel (10 rpm)) with 100 μl of beads and 5 μg of isotypical antibodies (mouse IgG2b), centrifuged (12,000 g; 2 min; 4° C.), then the supernatant was incubated (2 h; 4° C.; on a wheel (10 rpm)) with 5 μg of α-HA 12CA5 antibody (Roche). The beads (100 μL at 50% in PBS IX) were added directly to the antibody/protein complex then incubated (2 h; 4° C.; on a wheel (10 rpm)). The antibody/antigen/bead complexes were then centrifuged (12,000 g; 5 min; 4° C.), washed three times (lysis buffer; 4° C.), then disassociated by addition of Laemmli 2× buffer (25 mM Tris-HCl, 0.8% SDS, 4% glycerol, 1% β-mercaptoethanol, pH 6.8) (7 min; 100° C.). […]

Substance	cell invasion under growth factor (PC3 cells; NGF 16 nM or proNGF N.C. 0.5 nM, untreated cells = 100%)	association of TrkA, sortilin and EphA2 (co-immunoprecipitation) under ligand treatment ([1]; 0.5 nM proNGF N.C. or 16 nM NGF, 5 and 30 min)	invasion induced by proNGF in siRNA-transfected cells (PC3 cells; siRNA transfection vs siCTRL, proNGF)	formation of the TrkA/sortilin/EphA2 complex under proNGF with invalidation of a receptor ([1]; proNGF N.C., siRNA transfection or 1 μM neurotensin)
NGF: Nerve Growth Factor; recombinant human β NGF supplied by Scil Proteins	increased cell invasion	induce a delayed association of TrkA and sortilin but does not induce bonding with EphA2		
siEphA2: siRNA against EphA2, GCAAGGAAGUGGUACUGCUGGACUU (SEQ ID NO: 1) (listed as RNA, chemistry not given here)			abolished the invasion induced by proNGF	no bond was observed between EphA2 and TrkA
